The values below come from patent US9328099B2, “Cyanomethylpyrazole carboxamides as janus kinase inhibitors” (Merck Sharp & Dohme Corp., priority 2011, dated 2016).

Each structure is given as a SMILES string. Read-outs that look alike come from different tables or passages of the source.

One test addresses JAK1 (Homo sapiens (Human), UniProt P23458). Kind of test: Jak Biochemical HTRF Assay, JAK1. The settings on record: read-out: JAK1 IC50. The text has this: (§1) Jak Biochemical HTRF Assay Protocol
(§2) Subsequent reagent additions employed an Agilent Bravo.

A further test addresses JAK2 (Homo sapiens (Human), UniProt O60674). The experiment in a line: Jak Biochemical HTRF Assay, JAK2.
Source text: as §1, §2

Where [1] appears, read: HTRF biochemical assay, GST-tagged catalytic domain, top concentration tested […].

Chain of JAK2 (O60674 849-1124): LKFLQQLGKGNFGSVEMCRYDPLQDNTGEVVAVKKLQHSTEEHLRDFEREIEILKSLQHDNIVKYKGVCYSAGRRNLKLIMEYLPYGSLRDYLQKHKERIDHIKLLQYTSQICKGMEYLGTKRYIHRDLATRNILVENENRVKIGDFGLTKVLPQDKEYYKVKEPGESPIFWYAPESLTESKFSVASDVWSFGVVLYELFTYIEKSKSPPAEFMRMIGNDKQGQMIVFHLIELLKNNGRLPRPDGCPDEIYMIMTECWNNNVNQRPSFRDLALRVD
Chain of JAK1 (P23458 875-1153): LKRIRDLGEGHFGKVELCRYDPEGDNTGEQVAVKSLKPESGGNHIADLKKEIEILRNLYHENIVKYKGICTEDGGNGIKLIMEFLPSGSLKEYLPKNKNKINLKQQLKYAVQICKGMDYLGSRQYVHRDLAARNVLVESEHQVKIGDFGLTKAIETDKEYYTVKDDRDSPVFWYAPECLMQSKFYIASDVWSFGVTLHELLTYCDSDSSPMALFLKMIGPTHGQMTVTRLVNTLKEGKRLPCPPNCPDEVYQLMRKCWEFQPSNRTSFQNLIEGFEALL

Regarding `CC(=O)c1cccc(NC(=O)N2CC(CC#N)(n3cc(C(N)=O)c(Nc4ccccc4)n3)C2)c1` [Example 38-32, 1-{1-[(3-acetylphenyl)carbamoyl]-3-(cyanomethyl)azetidin-3-yl}-3-(phenylamino)-1H-pyrazole-4-carboxamide], the IC50 came to 4 nM on JAK1 (setting [1]) and 86 nM at JAK2 (setting [1]).

In the case of `N#CC[C@]1(n2cc(C(N)=O)c(Nc3ccccc3)n2)C[C@@H](C#N)C1` [Example 2-21, 1-((1s,3s)-3-cyano-1-(cyanomethyl)cyclobutyl)-3-(phenylamino)-1H-pyrazole-4-carboxamide], the IC50 on JAK1 (setting [1]) amounted to 31 nM; at JAK2 (setting [1]), 405 nM.

With `N#CCC1(n2cc(C(N)=O)c(Nc3ccc(F)cc3)n2)CCC(Nc2ccc(C(F)(F)F)cc2)CC1` (stereo not drawn) [Example 40-73, Cis or trans 1-[1-(cyanomethyl)-4-{[4-(trifluoromethyl)phenyl]amino}cyclohexyl]-3-[(4-fluorophenyl)amino]-1H-pyrazole-4-carboxamide], the IC50 at JAK1 (setting [1]) was 139 nM; at JAK2 (setting [1]) it was greater than 1500 nM.

Turning to `N#CCC1(n2cc(C(N)=O)c(Nc3ccccc3)n2)CCN(Cc2ccc(-c3ccccc3)cc2)CC1` [Example 21-1, 1-[1-(Biphenyl-4-ylmethyl)-4-(cyanomethyl)piperidin-4-yl]-3-(phenylamino)-1H-pyrazole-4-carboxamide], the IC50 on JAK1 (setting [1]) came to 6 nM; against JAK2 (setting [1]), 46 nM.

Consider `Cc1ncncc1N1CCC(CC#N)(n2cc(C(N)=O)c(Nc3ccc(F)cc3)n2)CC1` [Example 3-47, 1-[4-(cyanomethyl)-1-(4-methylpyrimidin-5-yl)piperidin-4-yl]-3-[(4-fluorophenyl)amino]-1H-pyrazole-4-carboxamide], for which the half-maximal inhibitory concentration (IC50) at JAK1 (setting [1]) is 13 nM; against JAK2 (setting [1]), 181 nM.

For the compound `C[C@@H](OC(=O)N1CCC(CC#N)(n2cc(C(N)=O)c(Nc3ccc(F)cc3)n2)CC1)C(F)(F)F` [Example 30-14, (R)-1,1,1-trifluoropropan-2-yl 4-(4-carbamoyl-3-(4-fluorophenylamino)-1H-pyrazol-1-yl)-4-(cyanomethyl)piperidine-1-carboxylate], the 50% inhibitory concentration (IC50) is 2 nM at JAK1 (setting [1]) and 30 nM against JAK2 (setting [1]).

In the case of `N#CCC1(n2cc(C(N)=O)c(Nc3ccc(F)cc3)n2)CCN(c2cccc(C3CC3)c2)CC1` [Example 3-17, 1-[4-(cyanomethyl)-1-(3-cyclopropylphenyl)piperidin-4-yl]-3-[(4-fluorophenyl)amino]-1H-pyrazole-4-carboxamide], the IC50 on JAK1 (setting [1]) amounted to 32 nM; against JAK2 (setting [1]), 780 nM.

`N#CCC1(n2cc(C(N)=O)c(Nc3ccc(S(=O)(=O)C(F)F)cc3)n2)CCC(N2CCC(F)(F)CC2)CC1` (stereo not drawn) [Example 40-42, Cis or trans 1-[1-(cyanomethyl)-4-(4,4-difluoropiperidin-1-yl)cyclohexyl]-3-({4-[(difluoromethyl)sulfonyl]phenyl}amino)-1H-pyrazole-4-carboxamide]: the IC50 came out at 64 nM on JAK1 (setting [1]) and 775 nM at JAK2 (setting [1]).

With `C[Si](C)(C)COC(=O)N1CCC(CC#N)(n2cc(C(N)=O)c(Nc3ccc(F)cc3)n2)CC1` [Example 30-10, (trimethylsilyl)methyl 4-(4-carbamoyl-3-(4-fluorophenylamino)-1H-pyrazol-1-yl)-4-(cyanomethyl)piperidine-1-carboxylate], the IC50 worked out at 21 nM at JAK1 and 745 nM against JAK2.

For the compound `N#CCC1(n2cc(C(N)=O)c(Nc3ccccc3)n2)CCN(C(=O)/C=C/c2cccnc2)CC1` [Example 34-17, 1-{4-(cyanomethyl)-1-[(2E)-3-pyridin-3-ylprop-2-enoyl]piperidin-4-yl}-3-(phenylamino)-1H-pyrazole-4-carboxamide], the figures for the IC50 on JAK1 (setting [1]) and against JAK2 (setting [1]) were 10 nM and 158 nM, respectively.

As for `CC(C)(C)COC(=O)N1CCC(CC#N)(n2cc(C(N)=O)c(Nc3ccccc3)n2)CC1` [Example 30-29, 2,2-dimethylpropyl 4-[4-carbamoyl-3-(phenylamino)-1H-pyrazol-1-yl]-4-(cyanomethyl)piperidine-1-carboxylate], the 50% inhibitory concentration (IC50) amounted to 6 nM at JAK1 (setting [1]) and 249 nM against JAK2 (setting [1]).

For the compound `N#CCC1(n2cc(C(N)=O)c(Nc3ccnc(F)c3)n2)CCN(Cc2ccon2)CC1` [Example 22-31, 1-[4-(cyanomethyl)-1-(isoxazol-3-ylmethyl)piperidin-4-yl]-3-[(2-fluoropyridin-4-yl)amino]-1H-pyrazole-4-carboxamide], the IC50 worked out at 1 nM on JAK1 (setting [1]) and 47 nM on JAK2 (setting [1]).

For `Cc1cc(N2CCC(CC#N)(n3cc(C(N)=O)c(Nc4ccc(F)cc4)n3)CC2)ccc1F` [Example 3-42, 1-[4-(cyanomethyl)-1-(4-fluoro-3-methylphenyl)piperidin-4-yl]-3-[(4-fluorophenyl)amino]-1H-pyrazole-4-carboxamide], the values for the half-inhibitory concentration (IC50) at JAK1 (setting [1]) and against JAK2 (setting [1]) were 12 nM and 287 nM, respectively.

`N#CCC1(n2cc(C(N)=O)c(Nc3ccc(F)cc3)n2)CCC(Nc2ccccc2F)CC1` (stereo not drawn) [Example 40-60, Cis or trans 1-{1-(cyanomethyl)-4-[(2-fluorophenyl)amino]cyclohexyl}-3-[(4-fluorophenyl)amino]-1H-pyrazole-4-carboxamide]: the results for the IC50 on JAK1 (setting [1]) and against JAK2 (setting [1]) were 45 nM and 758 nM, respectively.

In the case of `Cc1ncc(CN2CCC(CC#N)(n3cc(C(N)=O)c(Nc4ccnc(F)c4)n3)CC2)s1` [Example 22-15, 1-{4-(cyanomethyl)-1-[(2-methyl-1,3-thiazol-5-yl)methyl]piperidin-4-yl}-3-[(2-fluoropyridin-4-yl)amino]-1H-pyrazole-4-carboxamide], the IC50 stood at 1 nM on JAK1 (setting [1]) and 18 nM on JAK2 (setting [1]).

As to `N#CCC1(n2cc(C(N)=O)c(Nc3ccnc(F)c3)n2)CCC(Nc2ccc(F)cc2)CC1` (stereo not drawn) [Example 40-40, Cis or trans 1-{1-(cyanomethyl)-4-[(4-fluorophenyl)amino]cyclohexyl}-3-[(2-fluoropyridin-4-yl)amino]-1H-pyrazole-4-carboxamide], the IC50 came out at 0.2 nM at JAK1 (setting [1]) and 9 nM on JAK2 (setting [1]).

As to `N#CCC1(n2cc(C(N)=O)c(Nc3ccnc(F)c3)n2)CCC(NCc2ccc(F)cc2)CC1` (stereo not drawn) [Example 41-12, Cis or trans 1-{1-(cyanomethyl)-4-[(4-fluorobenzyl)amino]cyclohexyl}-3-[(2-fluoropyridin-4-yl)amino]-1H-pyrazole-4-carboxamide], the IC50 is 0.2 nM at JAK1 (setting [1]) and 9 nM on JAK2 (setting [1]).

As for `N#CCC1(n2cc(C(N)=O)c(Nc3ccnc(F)c3)n2)CCC(NCc2ccccc2F)CC1` (stereo not drawn) [Example 41-21, Cis or trans 1-{1-(cyanomethyl)-4-[(2-fluorobenzyl)amino]cyclohexyl}-3-[(2-fluoropyridin-4-yl)amino]-1H-pyrazole-4-carboxamide], the IC50 on JAK1 (setting [1]) worked out at 11 nM; on JAK2 (setting [1]), 308 nM.

Take `N#CCC1(n2cc(C(N)=O)c(Nc3cccnc3)n2)CCN(C(=O)OCC(F)(F)F)CC1` [Example 10-7, 2,2,2-trifluoroethyl 4-(4-carbamoyl-3-(pyridin-3-ylamino)-1H-pyrazol-1-yl)-4-(cyanomethyl)piperidine-1-carboxylate]: the 50% inhibitory concentration (IC50) amounted to 0.2 nM at JAK1 (setting [1]) and 4 nM against JAK2 (setting [1]).

Regarding `Cc1cc(Nc2nn(C3(CC#N)CCN(C(=O)OC(C)(C)C)CC3)cc2C(N)=O)nc(C)n1` [Example 13-10, tert-butyl 4-(4-carbamoyl-3-(2,6-dimethylpyrimidin-4-ylamino)-1H-pyrazol-1-yl)-4-(cyanomethyl)piperidine-1-carboxylate], the results for the IC50 on JAK1 (setting [1]) and against JAK2 (setting [1]) were 6 nM and 178 nM, respectively.

As to `CC(O)(C(=O)N1CCC(CC#N)(n2cc(C(N)=O)c(Nc3ccnc(F)c3)n2)CC1)C(F)F` (stereo not drawn) [Example 34-61, 1-[4-(cyanomethyl)-1-(3,3-difluoro-2-hydroxy-2-methylpropanoyl)piperidin-4-yl]-3-[(2-fluoropyridin-4-yl)amino]-1H-pyrazole-4-carboxamide], the IC50 at JAK1 (setting [1]) came out at 2 nM; against JAK2 (setting [1]) it was 38 nM.

Consider `N#CCC1(n2cc(C(N)=O)c(Nc3ccnc(F)c3)n2)CCN(Cc2cccc3cc[nH]c23)CC1` [Example 22-21, 1-[4-(cyanomethyl)-1-(1H-indol-7-ylmethyl)piperidin-4-yl]-3-[(2-fluoropyridin-4-yl)amino]-1H-pyrazole-4-carboxamide], for which the IC50 at JAK1 (setting [1]) stood at 0.7 nM; against JAK2 (setting [1]), 41 nM.

In the case of `CS(=O)(=O)CC(=O)N1CCC(CC#N)(n2cc(C(N)=O)c(Nc3ccnc(F)c3)n2)CC1` [Example 34-58, 1-{4-(cyanomethyl)-1-[(methylsulfonyl)acetyl]piperidin-4-yl}-3-[(2-fluoropyridin-4-yl)amino]-1H-pyrazole-4-carboxamide], the IC50 at JAK1 (setting [1]) was found to be 0.5 nM; on JAK2 (setting [1]) it was 22 nM.

In the case of `N#CCC1(n2cc(C(N)=O)c(Nc3ccc(F)cc3)n2)CCN(c2cccnc2F)CC1` [Example 3-51, 1-[4-(cyanomethyl)-1-(2-fluoropyridin-3-yl)piperidin-4-yl]-3-[(4-fluorophenyl)amino]-1H-pyrazole-4-carboxamide], the IC50 came out at 0.06 nM on JAK1 (setting [1]) and 0.6 nM against JAK2 (setting [1]).

Turning to `CC(C)(C)OC(=O)N1CCC(CC#N)(n2cc(C(N)=O)c(Nc3ccc(C(=O)N4CCOCC4)c(F)c3)n2)CC1` [Example 9-24, tert-butyl 4-(4-carbamoyl-3-{[3-fluoro-4-(morpholin-4-ylcarbonyl)phenyl]amino}-1H-pyrazol-1-yl)-4-(cyanomethyl)piperidine-1-carboxylate], the IC50 on JAK1 (setting [1]) was 0.2 nM; against JAK2 (setting [1]) it was 0.7 nM.

Consider `Cc1noc(C)c1-c1ccc(Nc2nn(C3(CC#N)CCN(C(=O)OC(C)(C)C)CC3)cc2C(N)=O)cc1` [Example 14, tert-Butyl 4-(4-carbamoyl-3-{[4-(3,5-dimethylisoxazol-4-yl)phenyl]amino}-1H-pyrazol-1-yl)-4-(cyanomethyl)piperidine-1-carboxylate], for which the results for the concentration for half-maximal inhibition (IC50) at JAK1 (setting [1]) and on JAK2 (setting [1]) were 10 nM and 38 nM, respectively.

As to `N#CCC1(n2cc(C(N)=O)c(Nc3ccnc(F)c3)n2)CCN(Cc2cccc3ccnn23)CC1` [Example 22-33, 1-[4-(cyanomethyl)-1-(pyrazolo[1,5-a]pyridin-7-ylmethyl)piperidin-4-yl]-3-[(2-fluoropyridin-4-yl)amino]-1H-pyrazole-4-carboxamide], the IC50 at JAK1 (setting [1]) came out at 2 nM; at JAK2 (setting [1]), 81 nM.

A word on the IC50: it is the midpoint of a concentration-inhibition curve.
